≈ marks a conversion by molar mass, not a printed value.
Tests used:
[1] = test system: Escherichia coli ATCC 25922; test: MBC, spot plating after 24 h; details: for MBC EC25922: Table 18
Procedure: (§5) To determine MBC compound concentrations breakpoints were estimated from MIC curves. Overnight cultures were set up as described above for all bacterial strains. The following day overnight cultures were adjusted to give a cell density of 5×10^5 cells per mL. Briefly, cultures were adjusted to the McFarland standard (0.08-0.12) and diluted (1:150). Adjusted cultures were inoculated into 96 well plates with 50 μL sterile Muller-Hinton broth (MHB) and 2 concentrations of each compound. […] MBC cultures were quantified by serial dilution in a 96 well plate and spot plating onto Muller-Hinton agar (MHA). MHA plates were incubated at 37° C. for 24 h and counted. Results are presented as CFU per mL.
(§6) To determine MBC compound concentrations, breakpoints were estimated from MIC curves. Overnight cultures were set up as described above for all bacterial strains. The following day overnight cultures were adjusted to give a cell density of 5×10^5 cells per mL. Briefly, cultures were adjusted to the McFarland standard (0.08-0.12) and diluted (1:150). Adjusted cultures were inoculated into 96 well plates with 50 μL sterile Muller-Hinton broth (MHB) and 2 concentrations of each compound. […] MBC cultures were quantified by serial dilution in a 96 well plate and spot plating onto Muller-Hinton agar (MHA). MHA plates were incubated at 37° C. for 24 hours and counted.

[2] = test system: Primary Human Dermal Fibroblast (HDFs); test: LDH cytotoxicity assay, HDF; assay type: cell-based; details: Table 16, summarized cell toxicity value, 24 hours treatment
Procedure: (§1) Primary Human Dermal Fibroblast (HDFs) and Human Keratinocyte (HaCaT) cells were selected for cytotoxicity and proliferation testing. HDFs were cultured in high glucose, no glutamine, no phenol red, Dulbecco's Modified Eagle Medium (DMEM) (GIBCO™). HDF media was further supplemented with 10% heat-inactivated fetal bovine serum (GIBCO™), 1% L-glutamine (GIBCO™) and 1% Penicillin-streptomycin (GIBCO™). HaCaTs cells were cultured in high glucose, no glutamine, no calcium DMEM (GIBCO™) supplemented with 10% heat inactivated foetal bovine serum, 1% L-glutamine, 1% Penicillin-streptomycin 1 mM calcium chloride (Sigma) throughout.
(§2) Mammalian cell populations were maintained in standard culture conditions at 37° C., 5% CO2 and >95% relative humidity. Upon reaching 80% total confluency, cells were removed from the incubator, the culture media aspirated, and the monolayer washed with Dulbecco's […] (DPBS). After washing, 10 mL of 1% trypsin (GIBCO™) was added to the flask and incubated to facilitate the detachment of cells from the culture vessel. Following dissociation, 10 mL of culture media was then added to each flask to neutralize the trypsin enzyme activity. The total 20-mL flask volume was transferred into a universal tube and centrifuged at 400 rcf for 5 minutes. Once complete, the pellet of cells was re-suspended in 10 mL warmed culture media and the number of cells per mL was determined using a hemocytometer counting chamber. Cell suspensions were then adjusted to 5×10^4 cells/mL for HDFs and 1×10^5 cells/mL for HaCaTs. 100 μL of the cell suspension was added to each well of a sterile, cell-culture-treated 96-well microtiter plate. The plates were incubated in standard culture conditions for 16-24 hours to allow cellular adherence to the culture vessel. […] Culture plates were removed from the incubator, the media removed; and monolayers washed with 100 μL of warmed DPBS. The contents of the test item dilution plates were transferred to the culture plates. […]
(§3) The secretion of lactate dehydrogenase (LDH) enzyme was used for quantitatively measuring cell damage and cytotoxicity. As damage to the cell plasma membrane releases LDH into the cell culture media, the extracellular LDH in the media can be quantified by a coupled enzymatic reaction in which LDH catalyzes the conversion of lactate to pyruvate via NAD+ reduction to NADH. […]
(§4) Following incubation with the selected compounds, 50 μL of media from each well was transferred to the corresponding well of a fresh 96 well culture plate. The presence of Lactate dehydrogenase (LDH) was then quantified using the INVITROGEN™ CyQUANT™ LDH Cytotoxicity Assay, fluorescence kit. Total fluorescence was measured by reading the plates on a plate reader at an excitation of 560 nm and an emission of 590 nm. […]

[3] = test system: Human Keratinocyte (HaCaT) cells; test: LDH cytotoxicity assay, HaCaT; assay type: cell-based; details: Table 16, summarized cell toxicity value, 24 hours treatment
Procedure: as §1, §2, §3, §4

[4] = test system: Klebsiella pneumoniae KL1; test: MBC, spot plating after 24 h
Procedure: as §5, §6

[5] = test system: Pseudomonas aeruginosa ATCC 27853; test: MIC, broth microdilution in MH broth (resazurin); details: Table 17; modified Gompertz model; not marked ^: unreliable estimation, interpret with caution
[6] = test system: Enterococcus faecalis ATCC 19433; test: MIC, broth microdilution in MH broth (resazurin); details: Table 17, modified Gompertz model
[7] = test system: Escherichia coli ATCC 25922; test: MIC, broth microdilution in MH broth (resazurin); details: Table 17; modified Gompertz model; not marked ^: unreliable estimation, interpret with caution
[8] = test system: Klebsiella pneumoniae KL1; test: MIC, broth microdilution in MH broth (resazurin); details: Table 17; modified Gompertz model; not marked ^: unreliable estimation, interpret with caution
[9] = test system: Staphylococcus aureus NRS384; assay type: cell-based; details: Example 11
[10] = test system: Pseudomonas aeruginosa ATCC 27853; test: MBC, spot plating after 24 h; details: Pseudomonas aeruginosa 27853; Example 11
Procedure: as §5, §6

[11] = test system: Enterococcus faecalis ATCC 51299; test: MBC, spot plating after 24 h; details: Enterococcus faecalis EF51299; Example 11
Procedure: as §5, §6

[12] = test system: Enterococcus faecalis ATCC 19433; test: MBC, spot plating after 24 h; details: Enterococcus faecalis EF19433; Example 11
Procedure: as §5, §6

[13] = test system: Staphylococcus aureus ATCC 29213; test: MBC, spot plating after 24 h; details: Staphylococcus aureus 29213; Example 11
Procedure: as §5, §6

[14] = test system: Staphylococcus aureus MR1; test: MBC, spot plating after 24 h; details: Example 11
Procedure: as §5, §6

[15] = Assessment of MIC of select compounds, DMSO stocks (Example 8, Table 21); assay type: cell-based
[16] = test system: Staphylococcus aureus NRS384; test: Murine wound infection model, bacterial CFU/wound (Example 6); details: Study 2 pilot; daily application of vancomycin (10 μg per wound)
S. aureus NRS 384 = test: Mouse Staphylococcus aureus-induced wound infection model, bacteria load in wound site (Studies I-V); details: for Ig(CFU/wound site) / ΔIg(CFU/wound site) vs infection control: Study III (Table 12), 1 mg/ml
[17] = test system: Staphylococcus aureus MR1; test: MIC, broth microdilution in MH broth (resazurin); details: Table 17; modified Gompertz model; not marked ^: unreliable estimation, interpret with caution
[18] = 10 μL/wound site, 10 μg/wound site, twice a day, 24 h p.i.
[19] = 10 μL/wound site, 10 μg/wound site, twice a day, 48 h p.i.
[20] = 10 μL/wound site, 10 μg/wound site, twice a day, 72 h p.i.
[21] = 50 μL/wound site, 50 μg/wound site, twice a day, 24 h p.i.

In the case of CCCCCCCCCCCCCCCCCC[N+](C)(C)CCOCCO.[Br-] [39637 105543], the “MBC EC25922” value [1] is reported as 25 µM.
In the case of CCCCCCCCCCCCCCCCCC[N+](C)(C)CCOCCO.[Br-] [Compound 39637_109466], the “Mammalian Cell Cytotoxicity, HDF” value [2] is reported as 6.3 µM, the “Mammalian Cell Cytotoxicity, HaCaT” value [3] is reported as 6.3 µM and the “MBC KL1” value ([4]; Table 18) is reported as 50 µM. The “MBC EC25922” value [1] was 25 µM.
With CCCCCC[N+](C)(C)CCOCCO.[Br-] [Compound 40598_109448] the “Mammalian Cell Cytotoxicity, HDF” value [2] was >100 µM, the “Mammalian Cell Cytotoxicity, HaCaT” value [3] was >100 µM and the “MIC PA27853” value [5] was 0.06 µM. The “MIC EF19433” value ([6]; not marked ^: unreliable estimation, interpret with caution) was “Unstable” and the “MIC EC25922” value [7] was 0.83 µM.
In the case of CCCCCCCCCCCCCCCCCC[N+](C)(C)CCOCCO.[Br-] [Compound 39637_105543], the “Mammalian Cell Cytotoxicity, HDF” value [2] is reported as 6.3 µM, the “Mammalian Cell Cytotoxicity, HaCaT” value [3] is reported as 6.3 µM and the “MIC KL1” value [8] is reported as “+infinity”. For the same molecule, the “MIC EF19433” value ([6]; marked ^: reliable estimation of MIC) was 3.20^ μM.
In the case of CN[C@H](CC(C)C)C(=O)N[C@H]1C(=O)N[C@@H](CC(N)=O)C(=O)N[C@H]2C(=O)N[C@H]3C(=O)N[C@H](C(=O)N[C@H](C(=O)O)c4cc(O)cc(O)c4-c4cc3ccc4O)[C@H](O)c3ccc(c(Cl)c3)Oc3cc2cc(c3O[C@@H]2O[C@H](CO)[C@@H](O)[C@H](O)[C@H]2O[C@H]2C[C@](C)(N)[C@H](O)[C@H](C)O2)Oc2ccc(cc2Cl)[C@H]1O [Van], the “MBC Concentration (μM) C” value [9] is reported as 0.02 µM (≈ 0.029 µg/mL), the “MBC Concentration (μM) F” value ([4]; Klebisella pneumoniae KL1, Example 11) is reported as 1.25 µM (≈ 1.81 µg/mL) and the “MBC Concentration (μM) G” value [10] is reported as 2.50 µM (≈ 3.62 µg/mL). For the same molecule, the “MBC Concentration (μM) D” value [11] was 0.04 µM (≈ 0.058 µg/mL), the “MBC Concentration (μM) E” value [12] was 0.08 µM (≈ 0.116 µg/mL) and the “MBC Concentration (μM) A” value [13] was 0.02 µM (≈ 0.029 µg/mL). The “MBC Concentration (μM) H” value ([1]; Escherichia coli EC25922, Example 11) was 0.31 µM (≈ 0.449 µg/mL) and the “MBC Concentration (μM) B” value [14] was 0.02 µM (≈ 0.029 µg/mL).
In the case of CN[C@H](CC(C)C)C(=O)N[C@H]1C(=O)N[C@@H](CC(N)=O)C(=O)N[C@H]2C(=O)N[C@H]3C(=O)N[C@H](C(=O)N[C@H](C(=O)O)c4cc(O)cc(O)c4-c4cc3ccc4O)[C@H](O)c3ccc(c(Cl)c3)Oc3cc2cc(c3O[C@@H]2O[C@H](CO)[C@@H](O)[C@H](O)[C@H]2O[C@H]2C[C@](C)(N)[C@H](O)[C@H](C)O2)Oc2ccc(cc2Cl)[C@H]1O [Vancomycin], the “MIC Concentration” value ([15]; Enterococcus faecalis EF19433) is reported as 5.00 µM, the “MIC Concentration” value ([15]; Escherichia coli EC25922) is reported as 0.63 µM and the “MIC Concentration” value ([15]; Klebisella oxytoca KL1) is reported as 0.63 µM. The “MIC Concentration” value ([15]; Pseudomonas aeruginosa 27853) was 5.00 µM, the “MIC Concentration” value ([15]; Staphylococcus aureus 29213) was 0.04 µM and the “MIC Concentration” value ([15]; Staphylococcus aureus MR1) was 0.04 µM. For the same molecule, the “MIC Concentration” value ([15]; Staphylococcus aureus NRS384) was 0.04 µM, the “log reduction in wound S. aureus at 24 hrs post-seeding” value [16] was 1 log and the “log reduction in wound S. aureus at 72 hrs post-seeding” value [16] was 1 log. For the same molecule, the “Ig (CFU/wound site) 12 h p.i.” value (S. aureus NRS 384; Study I, inoculum 4.20E+06 CFU/wound site, 39637 and 20-1 100 μM, 50 μL/wound site, once a day, Vancomycin 1 mg/ml, 10 μL/wound site, twice a day, starting at 5 min p.i.) was 8.47 ± 0.22 Ig (CFU/wound site), the “Ig (CFU/wound site) 24 h p.i.” value (S. aureus NRS 384; Study I, same regimens as E1) was 7.67 ± 0.60 Ig (CFU/wound site) and the “ΔIg (CFU/wound site) vs 12 h infection control” value (S. aureus NRS 384; Study I, same regimens as E1) was −0.11 ± 0.22 Ig (CFU/wound site). For the same molecule, the “ΔIg (CFU/wound site) vs 24 h infection control” value (S. aureus NRS 384; Study I, same regimens as E1) was −1.12 ± 0.60 Ig (CFU/wound site), the “effect at 12-hour post infection” value (S. aureus NRS 384; Study I, single dose at 10 μg) was “not manifest” and the “Ig(CFU/wound site)” value (S. aureus NRS 384; [18]) was 7.67 Ig(CFU/wound site). For the same molecule, the “ΔIg(CFU/wound site) vs infection control” value (S. aureus NRS 384; [18]) was −1.11 Ig(CFU/wound site), the “Ig(CFU/wound site)” value (S. aureus NRS 384; [19]) was 5.29 Ig(CFU/wound site) and the “ΔIg(CFU/wound site) vs infection control” value (S. aureus NRS 384; [19]) was −3.28 Ig(CFU/wound site). For the same molecule, the “Ig(CFU/wound site)” value (S. aureus NRS 384; [20]) was 5.12 Ig(CFU/wound site), the “ΔIg(CFU/wound site) vs infection control” value (S. aureus NRS 384; [20]) was −2.83 Ig(CFU/wound site) and the “Ig(CFU/wound site)” value (S. aureus NRS 384; [21]) was 4.37 Ig(CFU/wound site). For the same molecule, the “ΔIg(CFU/wound site) vs infection control” value (S. aureus NRS 384; [21]) was −4.40 Ig(CFU/wound site).
For CCCCCCCCCCCC[N+](C)(C)CCOCCO.[Br-] [Compound 40597_109444], the “Mammalian Cell Cytotoxicity, HDF” value [2] was 100 µM, the “Mammalian Cell Cytotoxicity, HaCaT” value [3] was 100 µM and the “MIC KL1” value [8] was 0.01 µM. For the same molecule, the “MIC MR1” value [17] was 0.94 µM.

Source: US20240358744A1, “WOUND HEALING DRESSINGS AND FORMULATIONS AND METHODS OF USE THEREOF” (POLAROID IP B.V., priority 2023, published 2024)
